Measurements as given in ChEMBL document CHEMBL5096202, “Carbon-silicon switch led to the discovery of novel synthetic cannabinoids with therapeutic effects in a mouse model of multiple sclerosis” (Eur J Med Chem, 2021).

biological target: T1, Cannabinoid receptor 1 (Homo sapiens, UniProt P21554); assay: Displacement of [3H]-CP55940 from recombinant human CB1 receptor expressed in CHO cells assessed as inhibition constant incubated for 120 mins by radioligand binding assay; type: cell-based; conditions: not given
T1 sequence (P21554 whole entry): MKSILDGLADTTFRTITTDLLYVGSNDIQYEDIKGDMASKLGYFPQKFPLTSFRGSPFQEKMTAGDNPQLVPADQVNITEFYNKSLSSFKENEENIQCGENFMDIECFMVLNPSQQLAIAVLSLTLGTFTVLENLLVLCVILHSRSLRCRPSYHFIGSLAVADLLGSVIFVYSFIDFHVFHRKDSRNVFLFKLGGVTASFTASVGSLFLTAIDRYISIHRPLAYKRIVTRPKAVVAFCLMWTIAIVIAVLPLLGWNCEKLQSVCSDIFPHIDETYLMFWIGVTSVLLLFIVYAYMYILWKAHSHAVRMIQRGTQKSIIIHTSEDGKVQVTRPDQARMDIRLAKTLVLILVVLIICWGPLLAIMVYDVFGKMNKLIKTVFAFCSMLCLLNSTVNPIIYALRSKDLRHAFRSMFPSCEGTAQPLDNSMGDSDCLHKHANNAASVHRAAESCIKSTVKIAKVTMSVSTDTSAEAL

| SMILES | Ki [nM] |
| --- | --- |
| CCCCCC[Si](C)(C)c1cc(O)c(C2CCCC2)c(OC)c1 | 74.8 |
| CCCC[Si](C)(C)c1cc(O)c2c(c1)OC(C)(C)c1ccc(C)cc1-2 | 5.15 |
| CCCCCC[Si](C)(C)c1cc(O)c(C2CCCCCC2)c(OC)c1 | 182 |
| CCCCCC[Si](C)(C)c1cc(O)c(C2CCCCCC2)c(O)c1 | 17.7 |
| CCCCCC[Si](C)(C)c1cc(O)c(C2CCCCC2)c(O)c1 | 17.7 |
| CCCCCC[Si](C)(C)c1cc(O)c2c(c1)OC(C)(C)[C@@H]1CCC(C)=C[C@@H]21 | 0.8 |
| CCCC[Si](C)(C)c1cc(O)c(C2CCCCC2)c(OC)c1 | 671 |
| CCCC[Si](C)(C)c1cc(O)c(C2CCCCCC2)c(O)c1 | 143 |
| CCCCCC[Si](C)(C)c1cc(O)c(C2CCCC2)c(O)c1 | 64.2 |
| CCCCCC[Si](C)(C)c1cc(O)c2c(c1)OC(C)(C)c1ccc(CO)cc1-2 | 0.35 |
| CCCCCC[Si](C)(C)c1cc(O)c2c(c1)OC(C)(C)[C@@H]1CC=C(CO)C[C@@H]21 | 0.43 |
| CCCC[Si](C)(C)c1cc(O)c2c(c1)OC(C)(C)[C@@H]1CCC(C)=C[C@@H]21 | 2.33 |
| CCCC[Si](C)(C)c1cc(O)c(C2CCCC2)c(O)c1 | 464 |

biological target: T2, Cannabinoid receptor 2 (Homo sapiens, UniProt P34972); assay: Agonist activity at recombinant human CB2 receptor expressed in CHO cells assessed as inhibition of forskolin-induced cAMP accumulation by measuring maximum efficacy preincubated for 15 mins followed by forskolin stimulation and measured after 15 mins by HTRF assay relative to control; type: functional, cell-based; conditions: filed as agonist, time 30.0 min
T2 sequence (P34972 whole entry): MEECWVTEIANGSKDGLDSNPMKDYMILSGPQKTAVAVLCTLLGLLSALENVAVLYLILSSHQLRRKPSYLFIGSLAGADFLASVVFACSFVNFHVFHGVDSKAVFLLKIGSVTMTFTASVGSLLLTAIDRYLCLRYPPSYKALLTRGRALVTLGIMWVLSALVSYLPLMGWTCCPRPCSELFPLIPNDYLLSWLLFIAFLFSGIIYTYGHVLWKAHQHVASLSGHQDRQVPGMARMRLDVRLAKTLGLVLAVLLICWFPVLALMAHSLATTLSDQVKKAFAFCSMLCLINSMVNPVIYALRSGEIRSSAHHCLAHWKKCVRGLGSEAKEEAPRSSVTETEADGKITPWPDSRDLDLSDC

| SMILES | Emax [%] |
| --- | --- |
| CCCC[Si](C)(C)c1cc(O)c(C2CCCCCC2)c(OC)c1 | 93.3 |
| CCCCCC[Si](C)(C)c1cc(O)c(C2CCCC2)c(OC)c1 | 89.8 |
| CCCC[Si](C)(C)c1cc(O)c2c(c1)OC(C)(C)c1ccc(C)cc1-2 | 90.4 |
| CCCCCC[Si](C)(C)c1cc(O)c(C2CCCCCC2)c(OC)c1 | 98.7 |
| CCCCCC[Si](C)(C)c1cc(O)c(C2CCCCCC2)c(O)c1 | 92 |
| CCCCCC[Si](C)(C)c1cc(O)c(C2CCCCC2)c(O)c1 | 95.5 |
| CCCCCC[Si](C)(C)c1cc(O)c2c(c1)OC(C)(C)[C@@H]1CCC(C)=C[C@@H]21 | 90.2 |
| CCCC[Si](C)(C)c1cc(O)c(C2CCCCC2)c(OC)c1 | 90.4 |
| CCCC[Si](C)(C)c1cc(O)c(C2CCCCCC2)c(O)c1 | 93.4 |
| CCCCCC[Si](C)(C)c1cc(O)c(C2CCCC2)c(O)c1 | 104 |
| CCCCCC[Si](C)(C)c1cc(O)c2c(c1)OC(C)(C)c1ccc(CO)cc1-2 | 92.7 |
| CCCC[Si](C)(C)c1cc(O)c2c(c1)OC(C)(C)[C@@H]1CCC(C)=C[C@@H]21 | 95.4 |
| CCCC[Si](C)(C)c1cc(O)c(C2CCCC2)c(O)c1 | 102 |

biological target: T2, Cannabinoid receptor 2; assay: Displacement of [3H]-CP55940 from recombinant human CB2 receptor expressed in CHO cells assessed as inhibition constant incubated for 120 mins by radioligand binding assay; type: cell-based; conditions: not given

| SMILES | Ki [nM] |
| --- | --- |
| CCCC[Si](C)(C)c1cc(O)c(C2CCCCCC2)c(OC)c1 | 616 |
| CCCCCC[Si](C)(C)c1cc(O)c(C2CCCC2)c(OC)c1 | 167 |
| CCCC[Si](C)(C)c1cc(O)c2c(c1)OC(C)(C)c1ccc(C)cc1-2 | 5.01 |
| CCCCCC[Si](C)(C)c1cc(O)c(C2CCCCCC2)c(OC)c1 | 67.2 |
| CCCCCC[Si](C)(C)c1cc(O)c(C2CCCCCC2)c(O)c1 | 6.53 |
| CCCCCC[Si](C)(C)c1cc(O)c(C2CCCCC2)c(O)c1 | 9.08 |
| CCCCCC[Si](C)(C)c1cc(O)c2c(c1)OC(C)(C)[C@@H]1CCC(C)=C[C@@H]21 | 7.41 |
| CCCC[Si](C)(C)c1cc(O)c(C2CCCCC2)c(OC)c1 | 396 |
| CCCC[Si](C)(C)c1cc(O)c(C2CCCCCC2)c(O)c1 | 63.5 |
| CCCCCC[Si](C)(C)c1cc(O)c(C2CCCC2)c(O)c1 | 42.3 |
| CCCCCC[Si](C)(C)c1cc(O)c2c(c1)OC(C)(C)c1ccc(CO)cc1-2 | 1.25 |
| CCCCCC[Si](C)(C)c1cc(O)c2c(c1)OC(C)(C)[C@@H]1CC=C(CO)C[C@@H]21 | 0.97 |
| CCCC[Si](C)(C)c1cc(O)c2c(c1)OC(C)(C)[C@@H]1CCC(C)=C[C@@H]21 | 1.48 |
| CCCC[Si](C)(C)c1cc(O)c(C2CCCC2)c(O)c1 | 368 |

biological target: T1, Cannabinoid receptor 1; assay: Agonist activity at recombinant human CB1 receptor expressed in CHO cells assessed as inhibition of forskolin-induced cAMP accumulation by measuring maximum efficacy preincubated for 15 mins followed by forskolin stimulation and measured after 15 mins by HTRF assay relative to control; type: functional, cell-based; conditions: filed as agonist, time 30.0 min

| SMILES | Emax [%] |
| --- | --- |
| CCCCCC[Si](C)(C)c1cc(O)c(C2CCCC2)c(OC)c1 | 81.6 |
| CCCC[Si](C)(C)c1cc(O)c2c(c1)OC(C)(C)c1ccc(C)cc1-2 | 102 |
| CCCCCC[Si](C)(C)c1cc(O)c(C2CCCCCC2)c(OC)c1 | 67.8 |
| CCCCCC[Si](C)(C)c1cc(O)c(C2CCCCCC2)c(O)c1 | 98 |
| CCCCCC[Si](C)(C)c1cc(O)c(C2CCCCC2)c(O)c1 | 98.6 |
| CCCCCC[Si](C)(C)c1cc(O)c2c(c1)OC(C)(C)[C@@H]1CCC(C)=C[C@@H]21 | 99.2 |
| CCCC[Si](C)(C)c1cc(O)c(C2CCCCCC2)c(O)c1 | 65 |
| CCCCCC[Si](C)(C)c1cc(O)c2c(c1)OC(C)(C)c1ccc(CO)cc1-2 | 93 |
| CCCCCC[Si](C)(C)c1cc(O)c2c(c1)OC(C)(C)[C@@H]1CC=C(CO)C[C@@H]21 | 105 |
| CCCC[Si](C)(C)c1cc(O)c2c(c1)OC(C)(C)[C@@H]1CCC(C)=C[C@@H]21 | 99.6 |

biological target: T1, Cannabinoid receptor 1; assay: Agonist activity at recombinant human CB1 receptor expressed in CHO cells assessed as inhibition of forskolin-induced cAMP accumulation preincubated for 15 mins followed by forskolin stimulation and measured after 15 mins by HTRF assay; type: functional, cell-based; conditions: not given

| SMILES | EC50 [nM] |
| --- | --- |
| CCCCCC[Si](C)(C)c1cc(O)c(C2CCCC2)c(OC)c1 | 709 |
| CCCC[Si](C)(C)c1cc(O)c2c(c1)OC(C)(C)c1ccc(C)cc1-2 | 400 |
| CCCCCC[Si](C)(C)c1cc(O)c(C2CCCCCC2)c(OC)c1 | 3120 |
| CCCCCC[Si](C)(C)c1cc(O)c(C2CCCCCC2)c(O)c1 | 129 |
| CCCCCC[Si](C)(C)c1cc(O)c(C2CCCCC2)c(O)c1 | 453 |
| CCCCCC[Si](C)(C)c1cc(O)c2c(c1)OC(C)(C)[C@@H]1CCC(C)=C[C@@H]21 | 5.94 |
| CCCC[Si](C)(C)c1cc(O)c(C2CCCCCC2)c(O)c1 | 836 |
| CCCCCC[Si](C)(C)c1cc(O)c2c(c1)OC(C)(C)c1ccc(CO)cc1-2 | 59.1 |
| CCCCCC[Si](C)(C)c1cc(O)c2c(c1)OC(C)(C)[C@@H]1CC=C(CO)C[C@@H]21 | 6.58 |
| CCCC[Si](C)(C)c1cc(O)c2c(c1)OC(C)(C)[C@@H]1CCC(C)=C[C@@H]21 | 13.9 |

biological target: T2, Cannabinoid receptor 2; assay: Agonist activity at recombinant human CB2 receptor expressed in CHO cells assessed as inhibition of forskolin-induced cAMP accumulation preincubated for 15 mins followed by forskolin stimulation and measured after 15 mins by HTRF assay; type: functional, cell-based; conditions: not given

| SMILES | EC50 [nM] |
| --- | --- |
| CCCC[Si](C)(C)c1cc(O)c(C2CCCCCC2)c(OC)c1 | 475 |
| CCCCCC[Si](C)(C)c1cc(O)c(C2CCCC2)c(OC)c1 | 236 |
| CCCC[Si](C)(C)c1cc(O)c2c(c1)OC(C)(C)c1ccc(C)cc1-2 | 268 |
| CCCCCC[Si](C)(C)c1cc(O)c(C2CCCCCC2)c(OC)c1 | 82.7 |
| CCCCCC[Si](C)(C)c1cc(O)c(C2CCCCCC2)c(O)c1 | 165 |
| CCCCCC[Si](C)(C)c1cc(O)c(C2CCCCC2)c(O)c1 | 55 |
| CCCCCC[Si](C)(C)c1cc(O)c2c(c1)OC(C)(C)[C@@H]1CCC(C)=C[C@@H]21 | 20.2 |
| CCCC[Si](C)(C)c1cc(O)c(C2CCCCC2)c(OC)c1 | 707 |
| CCCC[Si](C)(C)c1cc(O)c(C2CCCCCC2)c(O)c1 | 84.4 |
| CCCCCC[Si](C)(C)c1cc(O)c(C2CCCC2)c(O)c1 | 446 |
| CCCCCC[Si](C)(C)c1cc(O)c2c(c1)OC(C)(C)c1ccc(CO)cc1-2 | 27400 |
| CCCCCC[Si](C)(C)c1cc(O)c2c(c1)OC(C)(C)[C@@H]1CC=C(CO)C[C@@H]21 | 61.3 |
| CCCC[Si](C)(C)c1cc(O)c2c(c1)OC(C)(C)[C@@H]1CCC(C)=C[C@@H]21 | 65.1 |
| CCCC[Si](C)(C)c1cc(O)c(C2CCCC2)c(O)c1 | 53.8 |
